Results as given in ChEMBL document CHEMBL4619826, “Insights into the Molecular Determinants Involved in Urocontrin and Urocontrin A Action” (ACS Med Chem Lett, 2020).

Experiments:
Thoracic aorta [1] = assay: Contractile activity in Sprague-Dawley rat thoracic aorta assessed as contraction in aortic ring preincubated ofr 30 mins followed by URP or human U2-stimulation; assay type: functional, tissue-based
Thoracic aorta [2] = assay: Contractile activity in Sprague-Dawley rat thoracic aorta assessed as ratio of KCl-induced contraction to human U2-induced contraction in aortic ring at 3 x 10^-6 M (reference value: 101 +/- 4 %); assay type: functional
Urotensin-2 receptor = biological target: T1, Urotensin-2 receptor (Homo sapiens, UniProt Q9UKP6); assay: Antagonist activity at human UT receptor expressed in HEK293 cells using Na [125I] incubated for 2 hrs by gamma counting method; assay type: cell-based
T1 sequence (Q9UKP6 whole entry): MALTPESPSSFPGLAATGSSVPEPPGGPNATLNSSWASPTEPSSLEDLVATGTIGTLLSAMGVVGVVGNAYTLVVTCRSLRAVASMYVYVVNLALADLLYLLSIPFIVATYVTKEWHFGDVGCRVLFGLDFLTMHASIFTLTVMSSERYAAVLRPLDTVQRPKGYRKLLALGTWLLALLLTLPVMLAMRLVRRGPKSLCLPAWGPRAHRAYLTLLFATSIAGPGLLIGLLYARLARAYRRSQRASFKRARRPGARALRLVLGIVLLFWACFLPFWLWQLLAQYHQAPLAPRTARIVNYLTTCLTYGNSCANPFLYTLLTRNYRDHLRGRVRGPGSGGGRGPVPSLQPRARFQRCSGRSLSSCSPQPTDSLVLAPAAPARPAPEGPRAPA

Thoracic aorta [3] = assay: Contractile activity in Sprague-Dawley rat thoracic aorta assessed as ratio of KCl-induced contraction to human U2-induced contraction in aortic ring at 10^-11 to 3 x 10^-6 M relative to control; assay type: functional
Thoracic aorta [4] = assay: Contractile activity in Sprague-Dawley rat thoracic aorta assessed as ratio of KCl-induced contraction to URP-induced contraction in aortic ring at 10^-6 M (reference value: 107 +/- 3 %); assay type: functional
Thoracic aorta [5] = assay: Contractile activity in Sprague-Dawley rat thoracic aorta assessed as ratio of KCl-induced contraction to human U2-induced contraction in aortic ring at 10^-6 M (reference value: 101 +/- 4 %); assay type: functional
Thoracic aorta [6] = assay: Contractile activity in Sprague-Dawley rat thoracic aorta assessed as contraction in aortic ring preincubated ofr 30 mins followed by URP-stimulation (reference value: 8.16 +/- 0.08); assay type: functional, tissue-based
Thoracic aorta [7] = assay: Contractile activity in Sprague-Dawley rat thoracic aorta assessed as contraction in aortic ring preincubated ofr 30 mins followed by human U2-stimulation (reference value: 8.59 +/- 0.12); assay type: functional, tissue-based
Thoracic aorta [8] = assay: Contractile activity in Sprague-Dawley rat thoracic aorta assessed as ratio of KCl-induced contraction to URP-induced contraction in aortic ring at 10^-5 M (reference value: 107 +/- 3 %); assay type: functional
Thoracic aorta [9] = assay: Contractile activity in Sprague-Dawley rat thoracic aorta assessed as ratio of KCl-induced contraction to URP-induced contraction in aortic ring at 3 x 10^-6 M (reference value: 107 +/- 3 %); assay type: functional
Thoracic aorta [10] = assay: Contractile activity in Sprague-Dawley rat thoracic aorta assessed as contraction in aortic ring at 10^-5 M relative to control; assay type: functional
Thoracic aorta [11] = assay: Contractile activity in Sprague-Dawley rat thoracic aorta assessed as ratio of KCl-induced contraction to human U2-induced contraction in aortic ring at 10^-5 M (reference value: 101 +/- 4 %); assay type: functional

| SMILES | EC50 (Thoracic aorta [1]) [nM] | IC50 (Urotensin-2 receptor) [nM] | EC50 (Thoracic aorta [6]) [nM] | EC50 (Thoracic aorta [7]) [nM] | Emax at 3 µM (Thoracic aorta [2]) [%] | Emax (Thoracic aorta [3]) [%] | Emax at 1 µM (Thoracic aorta [4]) [%] | Emax at 1 µM (Thoracic aorta [5]) [%] | Emax at 10 µM (Thoracic aorta [8]) [%] | Emax at 3 µM (Thoracic aorta [9]) [%] | Emax at 10 µM (Thoracic aorta [10]) [%] | Emax at 10 µM (Thoracic aorta [11]) [%] |
| --- | --- | --- | --- | --- | --- | --- | --- | --- | --- | --- | --- | --- |
| CC(C)[C@H](NC(=O)[C@@H]1CSSC[C@H](NC(=O)[C@H](C)N)C(=O)N[C@@H](Cc2ccccc2)C(=O)N[C@@H](Cc2ccc(OCc3ccccc3)cc2)C(=O)N[C@@H](CCCCN)C(=O)N[C@@H](Cc2ccc(O)cc2)C(=O)N1)C(=O)O | > 3160 |  |  |  | 80 |  |  |  |  |  |  |  |
| CC(C)[C@H](NC(=O)[C@@H]1CSSC[C@H](NC(=O)[C@H](C)N)C(=O)N[C@@H](Cc2ccccc2)C(=O)N[C@@H](Cc2ccc(-c3ccsc3)cc2)C(=O)N[C@@H](CCCCN)C(=O)N[C@@H](Cc2ccc(O)cc2)C(=O)N1)C(=O)O | > 3160 | 36.3 | 12.9 | 7.59 | 20 |  | 115 | 105 |  |  |  |  |
| CC(C)[C@H](NC(=O)[C@@H]1CSSC[C@H](NC(=O)[C@H](C)N)C(=O)N[C@@H](Cc2ccccc2)C(=O)N[C@@H](Cc2ccc(-c3ccncc3)cc2)C(=O)N[C@@H](CCCCN)C(=O)N[C@@H](Cc2ccc(O)cc2)C(=O)N1)C(=O)O | > 3160 | 155 | 2.95 to 6.46 | 1.41 to 4.47 | 5 to 25 |  | 96 | 70 | 92 | 94 | 9 |  |
| CC(C)[C@H](NC(=O)[C@@H]1CSSC[C@H](NC(=O)[C@H](C)N)C(=O)NC(Cc2ccccc2)C(=O)N[C@H](Cc2ccc(I)cc2)C(=O)N[C@@H](CCCCN)C(=O)N[C@@H](Cc2ccc(O)cc2)C(=O)N1)C(=O)O (stereo in doubt) | 28.8 | 2.45 |  |  |  | 114 |  |  |  |  |  |  |
| CC(C)[C@H](NC(=O)[C@@H]1CSSC[C@H](NC(=O)[C@H](C)N)C(=O)N[C@@H](Cc2ccccc2)C(=O)N[C@@H](Cc2ccc(-c3cccnc3)cc2)C(=O)N[C@@H](CCCCN)C(=O)N[C@@H](Cc2ccc(O)cc2)C(=O)N1)C(=O)O | > 3160 | 102 | 8.51 | 2.09 | 24 |  | 102 | 94 |  |  |  |  |
| CC(C)[C@H](NC(=O)[C@@H]1CSSC[C@H](NC(=O)[C@H](C)N)C(=O)N[C@@H](Cc2ccccc2)C(=O)N[C@H](Cc2ccc(-c3ccccc3)cc2)C(=O)N[C@@H](CCCCN)C(=O)N[C@@H](Cc2ccc(O)cc2)C(=O)N1)C(=O)O | 47.9 | 3.16 |  |  |  | 97 |  |  |  |  |  |  |

More lines, in order of falling EC50 (Thoracic aorta [1]), values ahead:

| EC50 (Thoracic aorta [1]) [nM] | IC50 (Urotensin-2 receptor) [nM] | EC50 (Thoracic aorta [6]) [nM] | EC50 (Thoracic aorta [7]) [nM] | SMILES | Emax at 3 µM (Thoracic aorta [2]) [%] | Emax (Thoracic aorta [3]) [%] | Emax at 1 µM (Thoracic aorta [4]) [%] | Emax at 1 µM (Thoracic aorta [5]) [%] | Emax at 10 µM (Thoracic aorta [8]) [%] | Emax at 3 µM (Thoracic aorta [9]) [%] | Emax at 10 µM (Thoracic aorta [10]) [%] | Emax at 10 µM (Thoracic aorta [11]) [%] |
| --- | --- | --- | --- | --- | --- | --- | --- | --- | --- | --- | --- | --- |
| 28.2 | 12 |  |  | CC(C)[C@H](NC(=O)[C@@H]1CSSC[C@H](NC(=O)[C@H](C)N)C(=O)N[C@@H](Cc2ccccc2)C(=O)N[C@H](Cc2ccc(C#Cc3ccccc3)cc2)C(=O)N[C@@H](CCCCN)C(=O)N[C@@H](Cc2ccc(O)cc2)C(=O)N1)C(=O)O |  | 99 |  |  |  |  |  |  |
| 7.76 | 135 | 6.61 to 12 | 2.24 to 3.39 | CC(C)[C@H](NC(=O)[C@@H]1CSSC[C@H](NC(=O)[C@H](C)N)C(=O)N[C@@H](Cc2ccccc2)C(=O)N[C@@H](Cc2ccc(-c3ccc(-c4ccccc4)cc3)cc2)C(=O)N[C@@H](CCCCN)C(=O)N[C@@H](Cc2ccc(O)cc2)C(=O)N1)C(=O)O | 65 | 9 | 99 | 79 | 92 | 95 |  | 55 |
| 6.92 | 5.13 |  |  | CC(C)[C@H](NC(=O)[C@@H]1CSSC[C@H](NC(=O)[C@H](C)N)C(=O)N[C@@H](Cc2ccccc2)C(=O)N[C@@H](Cc2c[nH]c3ccccc23)C(=O)N[C@@H](CCCCN)C(=O)N[C@@H](Cc2ccc(O)cc2)C(=O)N1)C(=O)O |  | 107 |  |  |  |  |  |  |
